Patent US7196110B2, “N-substituted tricyclic 3-aminopyrazoles as inhibitors for the treatment of cell proliferative disorders” (Janssen Phamaceutica N.V., priority 2002, dated 2007)

Tests used:
[1] = tested on: PDGF-BB-stimulated angiogenesis; experiment: Anti-angiogenesis matrigel mouse model (MM assay) supplemented with PDGF-BB, plug hemoglobin content; assay type: in vivo, mice (C57BL/6J); conditions: mice
Source text: Angiogenesis inhibitory activity of a compound of this invention can be measured in vivo using the matrigel mouse model (MM Assay) of angiogenesis (Passaniti et al., Laboratory Investigation, 67: 519–528, 1992). The matrigel mouse assay is a well-established method to quantify angiogenesis (see e g. Capogrossi et al., Methods in Molecular Medicine, Vascular Disease: Molecular Biology and Gene Therapy Protocols, Edited by: A. H. Baker, Humana Press Inc., Totowa, N.J., 1999). The model has been characterized extensively for its relevance as a mimic of the process of angiogenesis and has been used extensively to evaluate in vivo both potential angiogenic and anti-angiogenic activity of numerous compounds/agents. […] All procedures involving animals were conducted in an animal facility fully accredited by the American Association for Assessment and Accreditation of Laboratory Animal Care (AAALAC) and in accordance with The Guide for the Care and Use of Laboratory Animals (NIH). […]
Normal male mice (C57BL/6J) were injected subcutaneously (ventrally below rib cage at abdominal midline) with 1.0 mL of chilled matrigel supplemented with a single purified pro-angiogenic growth factor (100–500 ng/mL of either rhPDGF-BB (supra), recombinant human basic fibroblast growth factor, rhFGF-basic (R&D System Cat. No 233-FB) or recombinant human vascular endothelial growth factor, rhVEGF (PanVera Cat. No R2951) and heparin (35 U/mL). Compounds are formulated as 0.1% suspensions (1 mg/mL final concentration) in 0.5% methylcellulose. Vehicle or test compounds (8–10 mice per treatment group) were administered orally by gavage beginning two hours after matrigel injections. […] Supernatants were removed and the hemoglobin concentration in the plug extract was measured spectrophotometrically using the Drabkin's assay method (Drabkin's reagent kit 525-A; SIGMA) and read on a Beckman DU 7400 Spectrophotometer. […] Group differences were analyzed statistically using the Mann-Whitney Test, with a p-value of 0.05 or less considered statistically significant. […]

[2] = biological target: T1, PDGF-receptor beta enzyme comprising the tyrosine kinase domain (Homo sapiens, UniProt P09619); experiment: Inhibition of PDGF-receptor kinase activity (cell-free, PLC1 peptide, 33P Flashplate); assay type: biochemical; conditions: PDGF-R kinase activity; for inhibition at 10 µM: compound at 10 uM, read-out: Percent Inhibition @ 10 uM; for IC50: read-out: IC50
T1 construct: from amino acid 545 to 1106 of GenBank Access NO: AAA36427
Procedure, shortened: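 The IC50 is the inhibitor level halving kinase activity relative to inhibitor-free wells, measured as 33P captured on a streptavidin-bound biotin-PLC1 peptide. The reaction ran 60 min at 30 °C in pH 8 Tris buffer with 1 mM DTT, 5 μM ATP and the 545–1106 kinase-domain enzyme.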

c-Abl kinase = c-Abl kinase (Abelson murine leukemia virus, UniProt P00521); experiment: Inhibition of c-Abl kinase activity (cell-free, Abl peptide substrate, 33P Flashplate); assay type: biochemical; conditions: IC50 for the c-Abl kinase activity
[3] = Rat pharmacokinetics study of pro-drugs, conversion to parent monitored by HPLC/MS/MS; assay type: in vivo; conditions: po, rat plasma, 10 mg/kg orally, read-out: Fast PK (0.5 h) conc. Prodrug
Description: Furthermore, pro-drugs have been administered orally to rats (10 mg/kg) in pharmacokinetics studies, and the conversion of pro-drugs to the parent compound was montitored by HPLC/MS/MS analyses. Parent compound or the glucuronide conjugates of the parent compound was detected in the rat plasma from the pharmacokinetics studies (Table G).

T1 sequence (P09619 545-1106): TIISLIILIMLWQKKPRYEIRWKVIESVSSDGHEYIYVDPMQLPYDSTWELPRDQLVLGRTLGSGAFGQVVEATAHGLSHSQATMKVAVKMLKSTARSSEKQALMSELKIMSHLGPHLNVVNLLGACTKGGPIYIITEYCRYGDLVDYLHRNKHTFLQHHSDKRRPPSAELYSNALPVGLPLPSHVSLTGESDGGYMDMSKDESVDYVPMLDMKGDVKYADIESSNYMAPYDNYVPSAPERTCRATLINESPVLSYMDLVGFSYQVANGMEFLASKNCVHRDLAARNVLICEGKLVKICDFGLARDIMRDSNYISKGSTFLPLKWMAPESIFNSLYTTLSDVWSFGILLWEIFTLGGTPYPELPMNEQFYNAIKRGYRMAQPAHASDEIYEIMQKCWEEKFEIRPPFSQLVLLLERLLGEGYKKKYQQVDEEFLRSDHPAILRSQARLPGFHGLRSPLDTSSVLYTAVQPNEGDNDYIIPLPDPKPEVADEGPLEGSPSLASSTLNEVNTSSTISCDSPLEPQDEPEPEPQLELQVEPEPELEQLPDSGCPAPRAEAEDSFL
c-Abl kinase, sequence (P00521 115-385): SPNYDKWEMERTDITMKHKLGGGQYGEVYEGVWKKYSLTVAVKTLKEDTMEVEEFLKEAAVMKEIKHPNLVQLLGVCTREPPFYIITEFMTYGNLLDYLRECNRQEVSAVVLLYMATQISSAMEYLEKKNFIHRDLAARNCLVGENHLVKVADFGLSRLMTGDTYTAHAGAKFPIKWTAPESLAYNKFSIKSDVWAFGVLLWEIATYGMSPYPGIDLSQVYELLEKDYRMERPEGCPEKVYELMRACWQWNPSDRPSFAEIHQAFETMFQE

Compound	% Inhibition @ 30 mg/kg po (angiogenesis, MM assay supplemented with PDGF-BB) [1]	inhibition at 10 µM [2]	IC50 [2]	IC50 (c-Abl kinase)	concentration at 0.5 h [3]
COc1cc2c(cc1OC)-c1n[nH]c(Nc3cccc(C(F)(F)F)c3)c1C2 [Compound 26, (6,7-Dimethoxy-2,4-dihydro-indeno[1,2-c]pyrazol-3-yl)-(3-trifluoromethyl-phenyl)-amine]	42%	92%	37 nM	134 nM	
COCC(=O)n1nc(Nc2cccc(F)c2)c2c1-c1cc(OC)c(OC)cc1C2 [Compound 465, 1-[3-(3-Fluoro-phenylamino)-6,7-dimethoxy-4H-indeno[1,2-c]pyrazol-1-yl]-2-methoxy-ethanone]		96%	6.73 nM	51 nM	223 nM
